{"source": "paper PMC7156458", "about": "“Synthetic biology based construction of biological activity-related library of fungal decalin-containing diterpenoid pyrones” (Nature Communications, 2020)", "key": {"[1]": {"test_system": "IMD pathway", "experiment": "IMD pathway inhibition, Attacin promoter luciferase assay in l(2)mbn cells", "type": "cell-based, Drosophila", "settings": "for IC50: IMD pathway; for activity at 0.2 µM / activity at 0.4 µM / activity at 0.8 µM / activity at 1 µM / Promoter Activity (%): heat-killed E. coli"}, "[2]": {"biological_target": "Aβ42 (Homo sapiens, UniProt P05067)", "sequence (P05067 672-713)": "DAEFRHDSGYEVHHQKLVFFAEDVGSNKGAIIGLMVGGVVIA", "experiment": "TEM analysis of amyloid fibrils formed by Aβ42", "type": "biochemical"}, "[3]": {"test_system": "adult Drosophila", "experiment": "toxic effect on Drosophila adult (injection, unmoving flies)", "type": "in vivo, Drosophila melanogaster", "settings": "for Number of Unmoving flies (%) Mean: 1 mM, 1h, adult flies injected (3.5 ng each), solvent 5", "from_the_text": "We next tested the ability of the DDPs to affect the innate immune pathways, namely, the Toll and immune deficiency (IMD) pathways, which are the front line of defence against infection by microorganisms. […] Thus, we successfully found unique biological activity against Drosophila in 5 and 21, which may potentially be developed as insecticides.\nFig. 6 Biological activity against Drosophila. a Inhibitory effect of compound 21 on the IMD pathway Drosophila l(2)mbn cells were stimulated with heat-killed E. coli and the activity of the Attacin promoter, a read-out of the activation of the IMD pathway, was monitored by a luciferase assay. Data are means ± SEM of triplicate wells from a single experiment and are representative of two independent experiments. b Toxic effect of compound 5 on Drosophila adult. […] Data are the means ± SEM of triplicate samples from a single experiment and are representative of two independent experiments. Source data underlying Fig. 6a, b are provided in a Source Data file.\nPolicy information about cell lines […]\nwere distributed from National Cancer Institute (Frederick, MD). HT-29, MCF-7, DU-145 and PC-3 were purchased from American Type Culture Collection (Baltimore, MD). MKN-1, MKN-74, MKN-45, MKN-A and MKN-B were purchased from Immuno-Biological Laboratories, Co., Ltd., Gumma, Japan). St-4, HBC-4, HBC-5 and BSY-1 were established in Japanese Foundation for Cancer Research (Tokyo, Japan).\nDL-1 and l(2)mbn were gifted from Dr. Kurata in Tohoku University.\nMCF-7 (Fig.5 and Supplementary Fig. 46) were obtained from American Type Culture Collection.\nHeLa-CD4-LTR/ !-galactosidase (MAGI) cells provided by Dr. J. Overbaugh through the NIH AIDS Research and Reference […]\nPC-3) were authenticated by STR analysis.\nDL-1 and l(2)mbn are Drosophila cell lines, and were not authenticated.\nMCF-7 cells (for Fig. 5 and Supplementary Fig. 46) were authenticated by STR analysis to evaluate antiproliferative activity […]\nMAGI cells were authenticated by the NIH.\nMycoplasma contamination All the cell lines tested negative for mycoplasma contamination. […]"}, "[4]": {"test_system": "MKN-B", "experiment": "cells", "parameters": "JFCR39 human cancer cell line panel, antiproliferative dose response (optical density), GI50", "procedure": "(§1) Initially, we evaluated new DDP analogues for their antiproliferative activities across the panel of 39 human cancer cell lines, JFCR39[50],[51]. […] Purified DDPs was dissolved in DMSO (Specially Prepared Reagent, Nuclease and Protease tested, NACALAI, 09659-14) to prepare 5 mM solutions. The Each DDP solution (5 mM) was used for antiproliferative effects on cancer cell lines (Supplementary Notes 23, 24, 25, 26), biological activity against Drosophila (Supplementary Note 27), anti-HIV assay (Supplementary Note 28) and screening of amyloid Ab42 aggregation inhibitors (Supplementary Notes 29)."}, "[5]": {"test_system": "NCI-H460", "experiment": "cells", "parameters": "JFCR39 human cancer cell line panel, antiproliferative dose response (optical density), GI50", "settings": "Homo sapiens, NCI-H460", "procedure": "as §1"}, "[6]": {"experiment": "cytotoxicity in the anti-HIV assay (CC50)", "type": "cell-based", "settings": "human, MAGI cells (HeLa-CD4-LTR/beta-galactosidase)"}, "[7]": {"test_system": "HCT-15", "experiment": "cells", "parameters": "JFCR39 human cancer cell line panel, antiproliferative dose response (optical density), GI50", "settings": "Homo sapiens, HCT-15", "procedure": "as §1"}}, "note": "Values joined by “and” are separate entries in the source; they are usually repeats but may differ in a detail not shown here. Equal values may be shown once. Read-outs that look alike come from different tables or passages of the source.", "data": [{"smiles": "C=C1CCC2C(C)(CCC=C(C)C)C(O)CCC2(C)C1Cc1c(OC)oc(CO)c(C(=O)OC)c1=O", "note": "(stereo not shown) [Compound 13]", "values": [{"measurement": "inhibitory effect on the IMD pathway", "setting": "[1]", "result": "moderate inhibitory effect"}, {"measurement": "formation of typical amyloid fibrils of Aβ42", "setting": "[2]", "result": "strongly prevented"}]}, {"smiles": "C=C1CC[C@@H]2[C@](C)(CC[C@H]3O[C@H](C=C(C)C)C[C@@]23C)[C@@H]1Cc1c(OC)oc(CO)c(C(=O)OC)c1=O", "note": "[Compound 21]", "values": [{"measurement": "Inhibitory effect (%)", "setting": "[1]; 0.4 µM, single wells", "result": "89.37% and 87.09%"}, {"measurement": "Inhibitory effect (%)", "setting": "[1]; 0.8 µM, single wells", "result": "98.99% and 96.72%"}, {"measurement": "Inhibitory effect (%)", "setting": "[1]; 1 µM, single wells", "result": "98.29% and 97.94%"}, {"measurement": "inhibition at 0.4 µM", "setting": "[1]; Drosophila melanogaster, 0.4 µM, single wells, read-out: Inhibitory effect (%)", "result": 85.2, "unit": "%"}, {"measurement": "inhibition at 0.8 µM", "setting": "[1]; Drosophila melanogaster, 0.8 µM, single wells, read-out: Inhibitory effect (%)", "result": 96.5, "unit": "%"}, {"measurement": "inhibition at 1 µM", "setting": "[1]; Drosophila melanogaster, 1 µM, single wells, read-out: Inhibitory effect (%)", "result": 100, "unit": "%"}, {"measurement": "IC50", "setting": "[1]; Drosophila melanogaster, read-out: IC50", "result": "270 ± 10", "unit": "nM"}, {"measurement": "IC50", "setting": "[1]; Drosophila melanogaster, read-out: IC50 Average", "result": 273, "unit": "nM"}, {"measurement": "IC50", "setting": "[1]; Drosophila melanogaster, single determinations, read-out: IC50 (IC50 1, 2, 3)", "result": 260, "unit": "nM"}, {"measurement": "activity at 0.2 µM", "setting": "[1]; Drosophila melanogaster, 0.2 µM, read-out: Promoter Activity (%) Average", "result": 81.5, "unit": "%"}, {"measurement": "activity at 0.2 µM", "setting": "[1]; Drosophila melanogaster, 0.2 µM, read-out: Promoter Activity (%) Final", "result": 81.5, "unit": "%"}, {"measurement": "activity at 0.2 µM", "setting": "[1]; Drosophila melanogaster, 0.2 µM, single wells, read-out: Promoter Activity (%)", "result": 73.6, "unit": "%"}, {"measurement": "activity at 0.4 µM", "setting": "[1]; Drosophila melanogaster, 0.4 µM, read-out: Promoter Activity (%) Average", "result": 12.8, "unit": "%"}, {"measurement": "activity at 0.4 µM", "setting": "[1]; Drosophila melanogaster, 0.4 µM, read-out: Promoter Activity (%) Final", "result": 12.8, "unit": "%"}, {"measurement": "activity at 0.4 µM", "setting": "[1]; Drosophila melanogaster, 0.4 µM, single wells, read-out: Promoter Activity (%)", "result": 14.8, "unit": "%"}, {"measurement": "activity at 0.8 µM", "setting": "[1]; Drosophila melanogaster, 0.8 µM, read-out: Promoter Activity (%) Average", "result": 2.58, "unit": "%"}, {"measurement": "activity at 0.8 µM", "setting": "[1]; Drosophila melanogaster, 0.8 µM, read-out: Promoter Activity (%) Final", "result": 2.58, "unit": "%"}, {"measurement": "activity at 1 µM", "setting": "[1]; Drosophila melanogaster, 1 µM, read-out: Promoter Activity (%) Average", "result": 1.26, "unit": "%"}, {"measurement": "activity at 1 µM", "setting": "[1]; Drosophila melanogaster, 1 µM, read-out: Promoter Activity (%) Final", "result": 1.26, "unit": "%"}, {"measurement": "IC50", "setting": "[1]; single determinations, read-out: IC50 (IC50 1, 2, 3)", "result": 290, "unit": "nM"}, {"measurement": "Promoter Activity (%)", "setting": "[1]; 0.2 µM, single wells", "result": "82.38% and 88.33%"}, {"measurement": "Promoter Activity (%)", "setting": "[1]; 0.4 µM, single wells", "result": "10.63% and 12.91%"}, {"measurement": "Promoter Activity (%)", "setting": "[1]; 0.8 µM, single wells", "result": "3.46% and 1.01% and 3.28%"}, {"measurement": "Promoter Activity (%)", "setting": "[1]; 1 µM, single wells", "result": "0.00% and 1.71% and 2.06%"}, {"measurement": "Number of Unmoving flies (%) Mean", "setting": "[3]", "result": 11.6667, "unit": "%"}, {"measurement": "formation of typical amyloid fibrils of Aβ42", "setting": "[2]", "result": "strongly prevented"}]}, {"smiles": "C=C1CC[C@H]2[C@]3(C)C[C@@H](C=C(C)C)O[C@H]3CC[C@]2(C)[C@@H]1Cc1c(O)c(C)c(C)oc1=O", "note": "[Compound 5, subglutinol A]", "values": [{"measurement": "Number of Unmoving flies (%) Mean", "setting": "[3]", "result": 58.3333, "unit": "%"}, {"measurement": "paralysing activity against adult Drosophila", "setting": "[3]; 1 h after injection", "result": "efficiently paralysed adult Drosophila"}]}, {"smiles": "C=C1CC[C@H]2[C@]3(C)C[C@H](C=C(C)C)O[C@H]3CC[C@]2(C)[C@@H]1Cc1c(OC)oc(C)c(C)c1=O", "note": "[Compound 24]", "values": [{"measurement": "GI50", "setting": "[4]", "result": 1280, "unit": "nM"}, {"measurement": "GI50", "setting": "[5]", "result": 90.1, "unit": "nM"}]}, {"smiles": "C=C1CC[C@@H]2[C@](C)(CC[C@H]3O[C@H](C=C(C)C)C[C@@]23C)[C@@H]1Cc1c(OC)oc(CO)c(C)c1=O", "note": "[Compound 20]", "values": [{"measurement": "CC50", "setting": "[6]", "result": "> 10", "unit": "µM"}]}, {"smiles": "C=C1CCC2C3(C)CC(C=C(C)C)OC3CCC2(C)C1Cc1c(OC)oc(C)c(C)c1=O", "note": "(stereo not shown) [Compound 23]", "values": [{"measurement": "GI50", "setting": "[7]", "result": 983, "unit": "nM"}]}]}
